Reference: US20100144809A1, “NOVEL BENZAMIDINE DERIVATIVES USEFUL AS POTASSIUM CHANNEL MODULATORS” (Neuro Search A/S, priority 2007, published 2010)

target: T1, human BK channels (Homo sapiens, UniProt Q12791); test: Electrophysiological determination of BK current, two-electrode voltage clamp in Xenopus oocytes; type: cell-based; conditions: 30 μM; increase of BK current relative to the basal current; Xenopus oocytes expressing human BK channels
T1 construct: expressed in transfected cells; host or cells: Xenopus oocytes
T1 sequence (Q12791 whole entry): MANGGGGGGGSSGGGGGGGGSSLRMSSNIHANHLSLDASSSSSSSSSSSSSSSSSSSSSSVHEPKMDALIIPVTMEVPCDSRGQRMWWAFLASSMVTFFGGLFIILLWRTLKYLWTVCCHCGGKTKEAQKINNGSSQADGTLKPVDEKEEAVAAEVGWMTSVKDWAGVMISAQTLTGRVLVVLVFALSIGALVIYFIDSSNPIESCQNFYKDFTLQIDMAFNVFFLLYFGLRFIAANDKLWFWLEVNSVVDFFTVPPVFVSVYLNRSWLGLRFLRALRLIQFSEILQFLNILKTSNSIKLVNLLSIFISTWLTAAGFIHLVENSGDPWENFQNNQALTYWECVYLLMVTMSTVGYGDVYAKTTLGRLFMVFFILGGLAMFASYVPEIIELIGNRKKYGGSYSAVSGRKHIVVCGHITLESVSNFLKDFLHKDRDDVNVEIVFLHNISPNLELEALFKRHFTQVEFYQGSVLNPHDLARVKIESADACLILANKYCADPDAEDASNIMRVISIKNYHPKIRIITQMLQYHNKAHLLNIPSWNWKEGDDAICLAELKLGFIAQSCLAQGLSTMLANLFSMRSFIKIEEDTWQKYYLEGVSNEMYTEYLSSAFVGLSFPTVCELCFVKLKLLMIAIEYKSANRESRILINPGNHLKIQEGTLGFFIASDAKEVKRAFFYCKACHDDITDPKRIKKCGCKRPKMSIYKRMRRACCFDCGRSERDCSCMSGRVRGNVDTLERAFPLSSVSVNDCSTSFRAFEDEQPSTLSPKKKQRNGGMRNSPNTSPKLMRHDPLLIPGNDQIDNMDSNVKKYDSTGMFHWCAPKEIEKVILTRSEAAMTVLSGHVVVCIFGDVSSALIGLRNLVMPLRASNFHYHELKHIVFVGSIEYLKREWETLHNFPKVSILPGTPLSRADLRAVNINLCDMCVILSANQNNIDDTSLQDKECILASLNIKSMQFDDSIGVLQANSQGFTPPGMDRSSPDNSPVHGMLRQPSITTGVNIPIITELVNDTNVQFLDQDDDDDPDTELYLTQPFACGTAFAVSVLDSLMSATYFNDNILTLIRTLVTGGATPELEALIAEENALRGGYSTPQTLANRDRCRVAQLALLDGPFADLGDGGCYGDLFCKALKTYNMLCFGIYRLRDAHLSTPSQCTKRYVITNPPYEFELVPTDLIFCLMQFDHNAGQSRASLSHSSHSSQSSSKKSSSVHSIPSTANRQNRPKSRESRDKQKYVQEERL
Description: In this experiment we investigated the influence of the compounds of the invention on the membrane currents when determined electrophysiologically on Xenopus Oocytes capable of expressing human BK channels, and the current through the channels is recorded using the classical two-electrode voltage clamp technique.
The results of these determinations are presented in Table 1 below, and presented as the increase of BK current relative to the basal current.

Relative Increase of BK Current [%] | SMILES
1118 | NNC(=Nc1ccc(-c2ccc(C(F)(F)F)cc2)cc1-c1nnn[nH]1)c1cc(C(F)(F)F)cc(C(F)(F)F)c1 [Compound 1, N-Amino-N′-[3-(1H-tetrazol-5-yl)-4′-trifluoromethyl-biphenyl-4-yl]-3,5-bis-trifluoromethyl-benzamidine]
252 | O=c1[nH]nc(-c2cc(C(F)(F)F)cc(C(F)(F)F)c2)n1-c1ccc(-c2ccc(C(F)(F)F)cc2)cc1-c1nn[nH]n1 [Compound 2, 5-(3,5-Bis-trifluoromethyl-phenyl)-4-[3-(2H-tetrazol-5-yl)-4′-trifluoromethyl-biphenyl-4-yl]-2,4-dihydro-[1,2,4]triazol-3-one]
1342 | ONC(=Nc1ccc(-c2ccc(C(F)(F)F)cc2)cc1-c1nnn[nH]1)c1cc(C(F)(F)F)cc(C(F)(F)F)c1 [Compound 3, N-Hydroxy-N′-[3-(1H-tetrazol-5-yl)-4′-trifluoromethyl-biphenyl-4-yl]-3,5-bis-trifluoromethyl-benzamidine]
